In patent US20060159617A1, “Small technetium-99m and rhenium labeled agents and methods for imaging tissues, organs and tumors” (priority 2002, published 2006):

Key:
[1] = system: DU145 human prostate carcinoma; assay: In-vivo tumor uptake / biodistribution, DU145 tumor-bearing nude mice; details: 1 h
Experimental: (§1) To study the tumor uptake of radiolabeled metal complexes, in vivo, biodistribution experiments at 1 h after their administration were carried out in C57B16 male mice with palpable B16 melanoma nodules and male nude mice bearing DU145 human prostate carcinoma in the hind limb.
(§2) The biodistribution data including tumor/nontumor (T/NT) ratios for selected organs are summarized in Table 1 and 2 as percentage injected dose per gram (% ID/g).

B16 melanoma = assay: In-vivo tumor uptake / biodistribution, B16 melanoma-bearing mice; details: 1 h, B16/F0 melanoma mice
Experimental: as §1, §2

σ1 receptor = molecular target: T1, σ1 receptor (Cavia porcellus, UniProt Q60492); assay: Sigma-1 receptor competition binding assay with [3H]-(+)-pentazocine; design: species or system guinea pig; details: apparent Ki (Cheng-Prusoff), brain membranes
T1 construct: The membranes were prepared from guinea pig brain (minus cerebellum) as described above; from tissue; host or cells: guinea pig brain (minus cerebellum) membranes
Experimental: The in vitro σ1 receptor binding affinities of rhenium coordinated complexes were determined in a competition assay using […] and high-affinity σ1 ligand [3H]-(+)-pentazocine (28 Ci/mmol, NEN Life Science Inc., Cambridge, Mass.). See, Mol. Neuropharmacol. 1993, 3, 117-126.
The membranes were prepared from guinea pig brain (minus cerebellum) as described above and stored at −70 ° C. Twelve concentrations of the nonradioactive rhenium complexes ranging from 1×10^−11 to 1×10^−3 and protein samples (0.15 mg of membrane protein) were incubated with […] [3H]-(+)-pentazocine in a total volume of 0.25 mL of Tris-HCl (50 mM, pH 8.0). Incubations were carried out for 120 min at 25° C. All assays were terminated by dilution with 5 mL of ice-cold Tris-HCl (10 mM), pH 8.0, and solution were filtered through glass-fiber filters (Whatman GF/F; presoaked in 0.5% polyethyleneimine for 30 min at 25° C.). Filters were then washed three times with 5 mL of ice-cold Tris-HCl (50 mM, pH 8.0), and counted in Hionic-Fluor cocktail (Packard, Groningen, the Netherlands). The corresponding IC50 values were determined with Origin 6.0 software (OriginLab, Northampton, Mass.) and were used for the calculation of the apparent Ki values with the Cheng-Prusoff equation. See, Biochem. Pharmacol. 1973, 22, 3099-3108.

σ2 receptor = molecular target: T2, σ2 receptor (Rattus norvegicus, UniProt Q5U3Y7); assay: σ2 receptor competition binding assay with [3H]-DTG, σ1 masked; details: apparent Ki, rat liver membranes
T2 construct: Rat liver membranes were prepared from male Sprague-Dawley rat livers as previously described; from tissue; host or cells: male Sprague-Dawley rat liver membranes
T2 sequence (Q5U3Y7 1-176): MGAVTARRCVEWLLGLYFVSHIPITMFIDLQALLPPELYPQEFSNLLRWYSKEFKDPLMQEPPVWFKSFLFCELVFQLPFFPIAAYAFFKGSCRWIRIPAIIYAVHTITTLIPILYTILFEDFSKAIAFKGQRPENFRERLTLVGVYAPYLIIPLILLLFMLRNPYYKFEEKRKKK
Experimental: Rat liver membranes were prepared from male Sprague-Dawley rat livers as previously described (Eur. J. Pharmacol.—Mol. Pharmacol. Sect. 1994, 268, 9-18). The in vitro σ2 receptor binding affinities of rhenium coordinated complexes were determined in a competition assay using rat livers and [^3H]-DTG (31 Ci/mmol, NEN Life Science Inc., Cambridge, Mass.) as radioligand in the presence of 10 μM 1-pyrrolidinylethyl 3,4-dichlorophenylacetate oxalate (ACT915 oxalate) to mask σ1 receptors (Bioorg. & Med. Chem. Lett. 2000, 10, 17-18). Competition assays were performed with twelve concentrations of the nonradioactive rhenium complexes ranging from 1×10^−10 to 1×10^−3 and protein samples (0.15 mg of membrane protein) in a total volume of 0.25 mL of Tris-HCl (50 mM, pH 8.0) for 120 min at 25° C. All other manipulations and data analysis were performed as described vide supra for the σ1-receptor assays.

α1 receptor = assay: Alpha-1 receptor competition binding assay with [3H]-Prazosin; details: apparent Ki, rat frontal cortex
Experimental: The in vitro α1 receptor binding affinities of rhenium coordinated complexes were determined in a competition assay using rat frontal cortex and high-affinity α1 ligand [^3H]-Prazosin (80 Ci/mmol, NEN Life Science Inc., Cambridge, Mass.). See, Eur. J. Nucl. Med. 2002, 29, 82-87.
The frontal cortex of rat brain was prepared as described above and store at −70° C. until used in the binding assays. Ten concentrations of the nonradioactive rhenium complexes ranging from 1×10^−10 to 1×10^−3 and protein samples (0.15 mg of membrane protein) were incubated with 1.5 nM [^3H]-Prazosin in a total volume of 0.25 mL of Tris-HCl (50 mM, pH 7.4, 10 mM MgSO4). Incubations were carried out for 60 min at 25° C. All assays were terminated by dilution with 5 mL of ice-cold Tris-HCl (10 mM), pH 7.4, and solution were filtered through glass-fiber filters (Whatman GF/F; presoaked in 0.5% polyethyleneimine for 30 min at 25° C.). Filters were then washed three times with 5 mL of ice-cold Tris-HCl (50 mM, pH 7.4), and counted in Hionic-Fluor cocktail (Packard, Groningen, the Netherlands). The corresponding IC50 values were determined with Origin 6.0 software (OriginLab, Northampton, Mass.) and were used for the calculation of the apparent Ki values with the Cheng-Prusoff equation. See, Biocheni. Pharmacol. 1973, 22, 3099-3108.

[2] = Determination of lipophilicity and pKa values by HPLC; type: physicochemical
Experimental: The lipophilicity and pKa values of all complexes were determined using HPLC methods described previously (Stylli, C.; Theobald, A. E. Determination of Ionization Constants of Radiopharmaceuticals in Mixed Solvents by HPLC. Appl. Radiat. Isot., 1987, 38, 701-708; Johannsen, B.; Scheunemann, M.; Spies, H.; Brust, P.; Wober, J.; Syhre, R.; Pietzsch, H.-J. Technetium(V) and Rhenium(V) Complexes for 5-HT2A Serotonin Receptor Binding: Structure-Affinity Considerations. Nucl. Med. Biol., 1996, 23, 429-438; and Johannsen, B.; Berger, R.; Brust, P.; Pietzsch, H.-J.; Scheunemann, M.; Seifert, S.; Spies, H.; Syhre, R. Structural Modification of Receptor-Binding Technetium-99m Complexes in Order to Improve Brain Uptake. Eur. J. Nucl. Med. 1997, 24, 316-319). […] The mobile phase was acetonitrile:phosphate buffer (0.01 M), 3:1, v/v, with the aqueous buffer adjusted to the desired pH between 3 and 11. The capacity factor (k′) was calculated for each determination (Braumann, T.; Grimme, L. H. Determination of Hydrophobic Parameters for Pyridazinone Herbicides by Liquid-Liquid Partition and Reversed-Phase High-Performance Liquid Chromatography. J. Chromatogr. 1981, 206, 7-15; El Tayer, N.; van der Waterbeemd, H.; Testa, B. Lipophilicity Measurements of Protonated Basic Compounds by Reversed-Phase High-Performance Liquid Chromatography. II. Procedure for the Determination of a Lipophilic Index Measured by Reversed-Phase High Performance Liquid Chromatography. J. Chromatogr. 1985, 320, 305-312; and Minick, D. J.; Frenz, J. H.; Patrick, M. A.; Brent, D. A. A Comprehensive Method for Determining Hydrophobicity Constants by Reversed-Phase High-Performance Liquid Chromatography. J. Med. Chem., 1988, 31, 1923-1933) and the partition coefficient at a given pH (D or logD) were calculated from the equation: log D=a log k′+b where the parameters a and b are predetermined using standard amines. The fitted points of inflection from the sigmoidal DHPLC/pH profiles permit calculation of the pKHPLC(Stylli, C.; Theobald, A. E. Determination of Ionization Constants of Radiopharmaceuticals in Mixed Solvents by HPLC. Appl. Radiat. Isot., 1987, 38, 701-708). The aqueous ionization constants pKa were calculated from the pKHPLC values after correction with a predetermined correction factor obtained using standard amine compounds. Log P values of the neutral complexes were estimated from the respective upper plateau of the sigmoidal log D/pH curve in the alkaline range.

T1 sequence (Q60492 whole entry): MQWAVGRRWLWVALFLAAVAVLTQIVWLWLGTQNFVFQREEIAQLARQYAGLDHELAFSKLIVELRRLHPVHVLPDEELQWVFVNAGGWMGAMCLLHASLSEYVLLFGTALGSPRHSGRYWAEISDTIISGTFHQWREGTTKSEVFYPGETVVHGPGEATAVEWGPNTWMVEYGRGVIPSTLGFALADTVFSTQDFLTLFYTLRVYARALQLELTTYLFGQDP

O=C1CN(CCCN2CCC(Cc3ccccc3)CC2)CC[S][99Tc]2(=[O])[S]CC[N]12 (stereo not shown) [Re 99mTc-15]
Tumor/Blood ratio [1]: 7.93
Tumor/Liver ratio [1]: 0.21
Tumor/Lung ratio [1]: 0.25
Tumor/Muscle ratio [1]: 2.33
Blood %ID/g ([1]; blood): 0.31 %ID/g
Brain %ID/g ([1]; brain): 0.51 %ID/g
Heart %ID/g ([1]; heart): 1.82 %ID/g
Intestine %ID/g ([1]; intestine): 20.94 %ID/g
Kidney %ID/g ([1]; kidney): 7.92 %ID/g
Liver %ID/g ([1]; liver): 12.06 %ID/g
Lung %ID/g ([1]; lung): 9.96 %ID/g
Muscle %ID/g ([1]; muscle): 1.06 %ID/g
Skin %ID/g ([1]; skin): 1.76 %ID/g
Spleen %ID/g ([1]; spleen): 7.56 %ID/g
Stomach %ID/g ([1]; stomach): 5.26 %ID/g
Tumor %ID/g ([1]; tumor): 2.46 %ID/g
Tumor/Blood ratio (B16 melanoma): 7.47
Tumor/Liver ratio (B16 melanoma): 0.21
Tumor/Lung ratio (B16 melanoma): 0.31
Tumor/Muscle ratio (B16 melanoma): 3.57
Blood %ID/g (B16 melanoma; blood): 0.44 %ID/g
Brain %ID/g (B16 melanoma; brain): 0.48 %ID/g
Heart %ID/g (B16 melanoma; heart): 1.87 %ID/g
Intestine %ID/g (B16 melanoma; intestine): 14.38 %ID/g
Kidney %ID/g (B16 melanoma; kidney): 7.66 %ID/g
Liver %ID/g (B16 melanoma; liver): 10.23 %ID/g
Lung %ID/g (B16 melanoma; lung): 15.60 %ID/g
Muscle %ID/g (B16 melanoma; muscle): 0.90 %ID/g
Skin %ID/g (B16 melanoma; skin): 1.21 %ID/g
Spleen %ID/g (B16 melanoma; spleen): 5.95 %ID/g
Stomach %ID/g (B16 melanoma; stomach): 6.81 %ID/g
Tumor %ID/g (B16 melanoma; tumor): 3.18 %ID/g

O=C(CN1CC[S][Re]2(=[O])[S]CC[N]2C(=O)C1)NC1CCN(Cc2ccccc2)CC1 (stereo not shown) [Re-22]
Ki (σ1 receptor): 5.51 µM
Ki (σ2 receptor): 4710 ± 986 nM

O=C1CN(CCCN2CCC(O)(c3ccc(Cl)cc3)CC2)CC[S][Re]2(=[O])[S]CC[N]12 (stereo not shown) [Re-18]
Ki (σ1 receptor): 2.96 µM
Ki (σ2 receptor): 528 ± 111 nM
Ki (α1 receptor): 980 ± 180 nM
k' (pH = 7.4) ([2]; HPLC capacity factor at pH 7.4): 29.7
k' (Max) ([2]; HPLC capacity factor, maximum): 37.5
pKa (Corrected) ([2]; HPLC method, corrected with standard amines): 7.26
